The results in this text go back to patent US11214538B2, “Farnesoid X receptor agonists and uses thereof” (Metacrine, Inc., priority 2015, dated 2022).

Molecules are shown by their SMILES.

The target of the experiment is T1, hFXR (Homo sapiens, UniProt Q96RI1).
T1 construct: expressed in transfected cells; host or cells: CV-1 cells
T1 sequence (Q96RI1 1-486): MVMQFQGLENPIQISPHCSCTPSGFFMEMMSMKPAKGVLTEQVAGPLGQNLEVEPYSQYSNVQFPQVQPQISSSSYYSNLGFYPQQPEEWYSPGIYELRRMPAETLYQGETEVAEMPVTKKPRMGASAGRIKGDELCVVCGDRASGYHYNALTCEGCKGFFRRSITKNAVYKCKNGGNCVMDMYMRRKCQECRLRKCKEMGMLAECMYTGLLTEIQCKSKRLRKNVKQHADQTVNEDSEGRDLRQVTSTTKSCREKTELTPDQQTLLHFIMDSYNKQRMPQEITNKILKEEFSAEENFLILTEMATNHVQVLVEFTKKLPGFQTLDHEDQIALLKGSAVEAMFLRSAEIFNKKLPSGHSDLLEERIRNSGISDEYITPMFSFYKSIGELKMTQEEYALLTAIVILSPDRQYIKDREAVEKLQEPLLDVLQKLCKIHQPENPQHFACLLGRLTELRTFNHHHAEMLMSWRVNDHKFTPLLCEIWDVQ
T1 sequence (P19793 1-462 partner): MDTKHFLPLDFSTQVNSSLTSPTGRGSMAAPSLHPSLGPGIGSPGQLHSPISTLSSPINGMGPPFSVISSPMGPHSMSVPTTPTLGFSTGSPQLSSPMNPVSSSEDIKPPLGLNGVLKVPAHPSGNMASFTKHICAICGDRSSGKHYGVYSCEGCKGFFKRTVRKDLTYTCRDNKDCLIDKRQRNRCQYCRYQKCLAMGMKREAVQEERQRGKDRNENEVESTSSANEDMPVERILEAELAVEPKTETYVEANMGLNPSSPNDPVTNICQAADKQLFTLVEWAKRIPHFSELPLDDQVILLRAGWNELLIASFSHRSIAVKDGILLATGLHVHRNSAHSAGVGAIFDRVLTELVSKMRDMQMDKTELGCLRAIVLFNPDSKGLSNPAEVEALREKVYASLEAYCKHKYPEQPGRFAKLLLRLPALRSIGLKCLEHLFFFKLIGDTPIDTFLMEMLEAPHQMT
As to the kind of experiment: In Vitro FXR Assay (PGL3), luciferase reporter in transfected CV-1 cells. The format is cell-based. To be noted: CV-1 cells transfected with hFXR, hRXR, PGL3-ECRE*6-luc; 18 hrs incubation; luminescence. The protocol: Example B-1: In Vitro FXR Assay (PGL3)
CV-1 cells were seeded at a density of 2,000,000 cells in a T175 flask with DMEM+10% charcoal double-stripped FBS and incubated at 37° C. in a 5% CO2 for 18 h (O/N).
After 18 h of incubation, the medium in the T175 flask was changed with fresh DMEM+10% charcoal super-stripped serum.
To prepare the transfection reaction mixture, the transfection reagent (X-tremeGENE HP from Roche, Cat #06 366 236 001) was added in to a 1.5 mL microcentrifuge tube labelled “A” at a ratio of 1:3 (DNA in g: transfection reagent in μL). OptiMEM medium (Life Technologies, Cat #31985-062) was added accordingly to provide a total volume of 1 mL. The transfection reaction mixture was then briefly vortexed and incubated at room temperature for 5 minutes.
In a separate 1.5 mL microcentrifuge tube labelled “B”, 100 μL OptiMEM and plasmids XPD90Gal pCMXhFXRfl, pCMXhRXRfl+PGL3-ECRE*6-luc+CMX-YFP in the ratio 2 g: 2 g:18 g:3 g were added. This microcentrifuge tube “B” was then briefly vortexed and incubated at room temperature for 5 minutes.
The total volume in tube labelled “A” was then transferred in to tube labelled “B.” The mixture was then briefly vortexed and the transfection:DNA complex was then incubated for about 15-20 minutes at room temperature.
Following incubation, the transfection reagent/DNA mixture complex was then added to cells in the T175 flask and the cells were incubated at […] (O/N) at 37° C. in 5% CO2.
In a 96 well plate, a half logarithmic serial dilution was prepared. OptiMEM was used as the diluent. Using any of one of the compounds described herein, a compound stock solution of 10 mM was prepared. An initial 1:100 dilution was made into the first well for a final concentration of 100 μM. The final concentrations in the 96-well plate was prepared by using a multichannel pipette to transfer 5 μL of the diluted compound to 384-well plate in quadruplicate.
Cells in T175 flask were trypsinized and cells were resuspending in 40 mL phenol red free DMEM+10% charcoal super-stripped FBS. Typically, one T175 flask was sufficient to seed two 384 well plates. CV-1 cells were seeded at 45 μL cell suspension/well using a multichannel pipet or a 384 multidrop dispenser. The cells were then incubated for 18 hrs, overnight.
After removing the plates from the incubator, the medium was flicked out of plate and 384 well plate was turned upside down onto paper towel. The remaining medium was gently tapped out. 15 μL lysis buffer was then added to each well using a multichannel pipet or a 384 well multi-drop dispenser. After incubation for 10 minutes at room temperature on shaker, 30 μL Luciferase buffer was added to each well. Luminescence counts were taken immediately using the Perkin Elmer Envision.
The ability of the compounds disclosed herein to […] FXR activity was quantified and the respective EC50 value was determined. Fex=fexaramine.
(In general: A reporter such as luciferase makes a cellular process visible.)
Regarding `CN(C)CCNc1cccc(N(Cc2ccc(-c3ccc(N(C)C)cc3)cc2)C(=O)C2CCCCC2)c1` [Compound 5, N-((4′-(Dimethylamino)-[1,1′-biphenyl]-4-yl)methyl)-N-(3-((2-(dimethylamino)ethyl)amino)phenyl) cyclohexanecarboxamide], the “Cmpd/Fex (ratio of the EC50 for the test compound relative to the EC50 of the Fexaramine control)” value was “+ (‘+’ means Cmpd/Fex >100)”. The result for `CC(C)CNc1cccc(N(Cc2ccc(-c3ccc(N(C)C)cc3)cc2)C(=O)C2CCCCC2)c1` [Compound 6, N-((4′-(Dimethylamino)-[1,1′-biphenyl]-4-yl)methyl)-N-(3-(isobutylamino)phenyl) cyclohexanecarboxamide] reads “+ (‘+’ means Cmpd/Fex >100)”; that for `COC(=O)NCc1cccc(N(Cc2ccc(-c3ccc(N(C)C)cc3)cc2)C(=O)C2CCCCC2)c1` [Compound 11, Methyl 3-(N-((4′-(dimethylamino)-[1,1′-biphenyl]-4-yl)methyl)cyclohexanecarboxamido)benzylcarbamate], “+ (‘+’ means Cmpd/Fex >100)”. With `COc1cccc(-c2cccc(N(Cc3ccc(-c4ccc(N(C)C)cc4)cc3)C(=O)C3CCCCC3)c2)c1` [Compound 2, N-((4′-(Dimethylamino)-[1,1′-biphenyl]-4-yl)methyl)-N-(3′-methoxy-[1,1′-biphenyl]-3-yl)cyclohexanecarboxamide], the “Cmpd/Fex (ratio of the EC50 for the test compound relative to the EC50 of the Fexaramine control)” value is “++ (‘++’ means Cmpd/Fex >10 & <100)”.

For the molecule `CN(C)c1ccc(-c2ccc(CN(C(=O)C3CCCCC3)c3cccc(CN4CCCC4=O)c3)cc2)cc1` [Compound 8, N-((4′-(Dimethylamino)-[1,1′-biphenyl]-4-yl)methyl)-N-(3-((2-oxopyrrolidin-1-yl)methyl)phenyl)cyclohexanecarboxamide], the “Cmpd/Fex (ratio of the EC50 for the test compound relative to the EC50 of the Fexaramine control)” value is recorded as “+ (‘+’ means Cmpd/Fex >100)”.

In the case of `COc1cc(-c2cccc(N(Cc3ccc(-c4ccc(N(C)C)cc4)cc3)C(=O)C3CCCCC3)c2)ccn1` [Compound 3, N-((4′-(Dimethylamino)-[1,1′-biphenyl]-4-yl)methyl)-N-(3-(2-methoxypyridin-4-yl)phenyl)cyclohexanecarboxamide], the “Cmpd/Fex (ratio of the EC50 for the test compound relative to the EC50 of the Fexaramine control)” value was “+++ (‘+++’ means Cmpd/Fex <10)”. On to `C/C=C\c1cccc(N(Cc2ccc(-c3ccc(N(C)C)cc3)cc2)C(=O)C2CCCCC2)c1` [Compound 17, (Z)-N-((4′-(Dimethylamino)-[1,1′-biphenyl]-4-yl)methyl)-N-(3-(prop-1-en-1-yl)phenyl)cyclohexanecarboxamide], for which the “Cmpd/Fex (ratio of the EC50 for the test compound relative to the EC50 of the Fexaramine control)” value was “++ (‘++’ means Cmpd/Fex >10 & <100)”. The result for `COC(=O)CN(C)c1cccc(N(Cc2ccc(-c3ccc(N(C)C)cc3)cc2)C(=O)C2CCCCC2)c1` [Compound 10, Methyl 2-((3-(N-((4′-(dimethylamino)-[1,1′-biphenyl]-4-yl)methyl)cyclohexanecarboxamido)phenyl)(methyl)amino)acetate] reads “+ (‘+’ means Cmpd/Fex >100)”; that for `CN(C)c1ccc(-c2ccc(CN(C(=O)C3CCCCC3)c3cccc(Oc4ccccc4)c3)cc2)cc1` [Compound 19, N-((4′-(Dimethylamino)-[1,1′-biphenyl]-4-yl)methyl)-N-(3-phenoxyphenyl)cyclohexanecarboxamide], “+ (‘+’ means Cmpd/Fex >100)”. For `CNC(=O)/C=C/c1cccc(N(Cc2ccc(-c3ccc(N(C)C)cc3)cc2)C(=O)C2CCCCC2)c1` [Compound 12, (E)-N-((4′-(Dimethylamino)-[1,1′-biphenyl]-4-yl)methyl)-N-(3-(3-(methylamino)-3-oxoprop-1-en-1-yl)phenyl)cyclohexanecarboxamide], the “Cmpd/Fex (ratio of the EC50 for the test compound relative to the EC50 of the Fexaramine control)” value is given as “++ (‘++’ means Cmpd/Fex >10 & <100)”.
